pIC50: −log10 of the molar value. Activity calls are given as the source filed them. The calls are words filed in the database; no cut-off is given here.
Tests used:
[1] = target: T1, Protein arginine N-methyltransferase 5 (Homo sapiens, UniProt O14744); assay: Inhibition of PRMT5 (unknown origin) by radiometric-based scintillation proximity assay
[2] = target: Protein arginine N-methyltransferase 1 (Homo sapiens, UniProt Q99873); assay: Inhibition of PRMT1 (unknown origin) using [3H]SAM as substrate preincubated for 15 mins followed by substrate addition and measured after 60 mins by microbeta scintillation counting analysis
Chain of Protein arginine N-methyltransferase 1 (Q99873 whole entry, the tested form may be a part): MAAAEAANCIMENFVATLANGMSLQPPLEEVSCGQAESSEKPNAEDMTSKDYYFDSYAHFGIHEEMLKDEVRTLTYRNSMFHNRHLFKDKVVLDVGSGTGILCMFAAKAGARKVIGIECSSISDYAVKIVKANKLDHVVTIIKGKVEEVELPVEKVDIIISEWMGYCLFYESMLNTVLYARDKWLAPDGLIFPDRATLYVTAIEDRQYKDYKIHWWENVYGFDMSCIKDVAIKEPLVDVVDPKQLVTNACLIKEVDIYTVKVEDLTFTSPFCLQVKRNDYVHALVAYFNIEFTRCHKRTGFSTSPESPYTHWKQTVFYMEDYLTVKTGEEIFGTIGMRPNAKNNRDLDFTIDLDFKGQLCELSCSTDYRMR

[3] = target: Receptor tyrosine-protein kinase erbB-4 (Homo sapiens, UniProt Q15303); assay: Inhibition of wild type GST-tagged HER4 catalytic domain (unknown origin) expressed in insect cells using poly(Glu-Tyr) as substrate incubated for 6 mins by ELISA; set-up: species or system Insect cell
Chain of Receptor tyrosine-protein kinase erbB-4 (Q15303 whole entry, the tested form may be a part): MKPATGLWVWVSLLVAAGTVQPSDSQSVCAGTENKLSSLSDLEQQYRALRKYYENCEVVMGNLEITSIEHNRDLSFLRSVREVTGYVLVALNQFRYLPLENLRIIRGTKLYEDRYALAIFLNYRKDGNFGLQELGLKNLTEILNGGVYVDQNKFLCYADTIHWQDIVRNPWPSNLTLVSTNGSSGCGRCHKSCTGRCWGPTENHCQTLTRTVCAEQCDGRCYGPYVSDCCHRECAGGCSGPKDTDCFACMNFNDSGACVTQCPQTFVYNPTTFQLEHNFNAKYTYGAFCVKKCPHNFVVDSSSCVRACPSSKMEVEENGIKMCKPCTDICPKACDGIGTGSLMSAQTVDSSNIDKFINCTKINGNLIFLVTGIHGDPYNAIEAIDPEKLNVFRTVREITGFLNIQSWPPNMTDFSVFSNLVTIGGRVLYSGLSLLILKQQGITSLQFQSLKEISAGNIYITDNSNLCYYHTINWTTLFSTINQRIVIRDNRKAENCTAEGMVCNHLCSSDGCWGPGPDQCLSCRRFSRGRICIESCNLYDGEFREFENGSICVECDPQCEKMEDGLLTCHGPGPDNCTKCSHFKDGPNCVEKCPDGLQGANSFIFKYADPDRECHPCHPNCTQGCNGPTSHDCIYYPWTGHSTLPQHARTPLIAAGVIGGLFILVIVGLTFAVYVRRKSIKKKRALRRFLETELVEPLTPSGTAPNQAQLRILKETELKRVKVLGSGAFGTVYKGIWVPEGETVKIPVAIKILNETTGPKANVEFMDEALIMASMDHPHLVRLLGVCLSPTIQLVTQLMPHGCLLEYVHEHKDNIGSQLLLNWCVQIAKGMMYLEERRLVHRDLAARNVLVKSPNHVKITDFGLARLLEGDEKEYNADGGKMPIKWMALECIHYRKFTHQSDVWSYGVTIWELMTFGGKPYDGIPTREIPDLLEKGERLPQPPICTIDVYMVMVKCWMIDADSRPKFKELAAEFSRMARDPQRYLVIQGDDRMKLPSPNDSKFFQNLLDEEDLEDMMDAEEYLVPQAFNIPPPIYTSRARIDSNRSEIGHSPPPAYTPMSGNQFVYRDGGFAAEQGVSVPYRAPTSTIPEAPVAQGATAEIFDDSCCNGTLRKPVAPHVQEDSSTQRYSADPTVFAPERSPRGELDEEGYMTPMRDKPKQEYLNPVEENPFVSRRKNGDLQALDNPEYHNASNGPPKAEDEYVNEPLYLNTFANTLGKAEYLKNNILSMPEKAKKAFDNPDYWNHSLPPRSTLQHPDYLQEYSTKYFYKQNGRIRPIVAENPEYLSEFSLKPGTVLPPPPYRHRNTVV

A549 = assay: Antiproliferative activity against human A549 cells assessed as inhibition of cell growth by CCK-8 assay
MCF7 [4] = assay: Antiproliferative activity against human MCF7 cells assessed as inhibition of cell growth by CCK-8 assay
HeLa = assay: Antiproliferative activity against human HeLa cells assessed as inhibition of cell growth by CCK-8 assay
MDA-MB-231 = assay: Antiproliferative activity against human MDA-MB-231 cells assessed as inhibition of cell growth by CCK-8 assay
HepG2 = assay: Antiproliferative activity against human HepG2 cells assessed as inhibition of cell growth by CCK-8 assay
[5] = target: T1, Protein arginine N-methyltransferase 5; assay: Inhibition of PRMT5 in human MCF7 cells using SmD3 as substrate assessed as reduction in symmetric arginine dimethylation by measuring reduction in SmD3me2 level incubated for 72 hrs by Western blot analysis; format: cell-based; conditions: dose 3.75-15 µM
[6] = Volume of distribution in male Sprague-Dawley rat at 10 mg/kg, po administered as single dose by LC-MS/MS analysis; format: ADME, organism-based; conditions: in vivo
MCF7 [7] = assay: Induction of cell cycle arrest in human MCF7 cells assessed as accumulation of cells at G1 phase at 3.75 uM incubated for 48 hrs by PI/RNase staining based flow cytometry analysis (reference value: 48.01%); format: functional
MCF7 [8] = assay: Induction of cell cycle arrest in human MCF7 cells assessed as accumulation of cells at S phase at 3.75 uM incubated for 48 hrs by PI/RNase staining based flow cytometry analysis (reference value: 44.87%); format: functional
MCF7 [9] = assay: Induction of cell cycle arrest in human MCF7 cells assessed as accumulation of cells at G2 phase at 3.75 uM incubated for 48 hrs by PI/Rnase staining based flow cytometry analysis (reference value: […]%); format: functional
MCF7 [10] = assay: Induction of cell cycle arrest in human MCF7 cells assessed as accumulation of cells at G1 phase at 7.5 uM incubated for 48 hrs by PI/RNase staining based flow cytometry analysis (reference value: 48.01%); format: functional
MCF7 [11] = assay: Induction of cell cycle arrest in human MCF7 cells assessed as accumulation of cells at S phase at 7.5 uM incubated for 48 hrs by PI/RNase staining based flow cytometry analysis (reference value: 44.87%); format: functional
MCF7 [12] = assay: Induction of cell cycle arrest in human MCF7 cells assessed as accumulation of cells at G2 phase at 7.5 uM incubated for 48 hrs by PI/Rnase staining based flow cytometry analysis (reference value: […]%); format: functional
MCF7 [13] = assay: Induction of apoptosis in human MCF7 cells assessed as live cells at 3.75 uM measured after 48 hrs by Annexin V-FITC staining based flow cytometry analysis (reference value: 99.26%); format: functional
MCF7 [14] = assay: Induction of apoptosis in human MCF7 cells assessed as early apoptotic cells at 3.75 uM measured after 48 hrs by Annexin V-FITC staining based flow cytometry analysis (reference value: 0.58%); format: functional
MCF7 [15] = assay: Induction of apoptosis in human MCF7 cells assessed as late apoptotic cells at 3.75 uM measured after 48 hrs by Annexin V-FITC staining based flow cytometry analysis (reference value: 0.14%); format: functional
MCF7 [16] = assay: Induction of apoptosis in human MCF7 cells assessed as dead cells at 3.75 uM measured after 48 hrs by Annexin V-FITC staining based flow cytometry analysis (reference value: 0.02%); format: functional
MCF7 [17] = assay: Induction of apoptosis in human MCF7 cells assessed as live cells at 7.5 uM measured after 48 hrs by Annexin V-FITC staining based flow cytometry analysis (reference value: 99.26%); format: functional
MCF7 [18] = assay: Induction of apoptosis in human MCF7 cells assessed as early apoptotic cells at 7.5 uM measured after 48 hrs by Annexin V-FITC staining based flow cytometry analysis (reference value: 0.58%); format: functional
MCF7 [19] = assay: Induction of apoptosis in human MCF7 cells assessed as late apoptotic cells at 7.5 uM measured after 48 hrs by Annexin V-FITC staining based flow cytometry analysis (reference value: 0.14%); format: functional
MCF7 [20] = assay: Induction of apoptosis in human MCF7 cells assessed as dead cells at 7.5 uM measured after 48 hrs by Annexin V-FITC staining based flow cytometry analysis (reference value: 0.02%); format: functional
MCF7 [21] = assay: Induction of apoptosis in human MCF7 cells assessed as live cells at 15 uM measured after 48 hrs by Annexin V-FITC staining based flow cytometry analysis (reference value: 99.26%); format: functional
MCF7 [22] = assay: Induction of apoptosis in human MCF7 cells assessed as early apoptotic cells at 15 uM measured after 48 hrs by Annexin V-FITC staining based flow cytometry analysis (reference value: 0.58%); format: functional
MCF7 [23] = assay: Induction of apoptosis in human MCF7 cells assessed as late apoptotic cells at 15 uM measured after 48 hrs by Annexin V-FITC staining based flow cytometry analysis (reference value: 0.14%); format: functional
MCF7 [24] = assay: Induction of apoptosis in human MCF7 cells assessed as dead cells at 15 uM measured after 48 hrs by Annexin V-FITC staining based flow cytometry analysis (reference value: 0.02%); format: functional
[25] = Metabolic stability in human liver microsomes assessed as compound remaining at […] measured after 30 mins in presence of NADPH by LC-MS/MS analysis; format: ADME, Microsome; conditions: read-out: Stability
[26] = Metabolic stability in rat liver microsomes assessed as compound remaining at […] measured after 30 mins in presence of NADPH by LC-MS/MS analysis; format: ADME, Microsome; conditions: read-out: Stability
[27] = AUC (0 to 24 hrs) in male Sprague-Dawley rat at 10 mg/kg, po administered as single dose by LC-MS/MS analysis; format: ADME, organism-based; conditions: in vivo
[28] = AUC (0 to infinity) in male Sprague-Dawley rat at 10 mg/kg, po administered as single dose by LC-MS/MS analysis; format: ADME, organism-based; conditions: in vivo
[29] = Half life in male Sprague-Dawley rat at 10 mg/kg, po administered as single dose by LC-MS/MS analysis; format: ADME, organism-based; conditions: in vivo
[30] = Tmax in male Sprague-Dawley rat at 10 mg/kg, po administered as single dose by LC-MS/MS analysis; format: ADME, organism-based; conditions: in vivo
[31] = Cmax in male Sprague-Dawley rat at 10 mg/kg, po administered as single dose by LC-MS/MS analysis; format: ADME, organism-based; conditions: in vivo
[32] = Clearance in male Sprague-Dawley rat at 10 mg/kg, po administered as single dose by LC-MS/MS analysis; format: ADME, organism-based; conditions: in vivo
[33] = Oral bioavailability in male Sprague-Dawley rat at 10 mg/kg administered as single dose by LC-MS/MS analysis; format: ADME, organism-based; conditions: in vivo
[34] = AUC (0 to 24 hrs) in male Sprague-Dawley rat at 2 mg/kg, iv administered via tail vein by LC-MS/MS analysis; format: ADME, organism-based; conditions: in vivo
[35] = AUC (0 to infinity) in male Sprague-Dawley rat at 2 mg/kg, iv administered via tail vein by LC-MS/MS analysis; format: ADME, organism-based; conditions: in vivo
[36] = Half life in male Sprague-Dawley rat at 2 mg/kg, iv administered via tail vein by LC-MS/MS analysis; format: ADME, organism-based; conditions: in vivo
[37] = Cmax in male Sprague-Dawley rat at 2 mg/kg, iv administered via tail vein by LC-MS/MS analysis; format: ADME, organism-based; conditions: in vivo
[38] = Clearance in male Sprague-Dawley rat at 2 mg/kg, iv administered via tail vein by LC-MS/MS analysis; format: ADME, organism-based; conditions: in vivo
[39] = Volume of distribution in male Sprague-Dawley rat at 2 mg/kg, iv administered via tail vein by LC-MS/MS analysis; format: ADME, organism-based; conditions: in vivo
[40] = Bioavailability in male Sprague-Dawley rat at 2 mg/kg, iv administered via tail vein by LC-MS/MS analysis; format: ADME, organism-based; conditions: in vivo
MCF7 [41] = assay: Antitumor activity against orthotopic human MCF7 cells xenografted in CB17SCID mouse assessed as inhibition of tumor growth at 10 to 20 mg/kg, po qd administered once daily for 21 days starting from 3 days post tumor inoculation and measured every day by calipers method; format: functional, organism-based; conditions: dose 10-20 mg/kg, time 21.0 day

T1 sequence (O14744 whole entry): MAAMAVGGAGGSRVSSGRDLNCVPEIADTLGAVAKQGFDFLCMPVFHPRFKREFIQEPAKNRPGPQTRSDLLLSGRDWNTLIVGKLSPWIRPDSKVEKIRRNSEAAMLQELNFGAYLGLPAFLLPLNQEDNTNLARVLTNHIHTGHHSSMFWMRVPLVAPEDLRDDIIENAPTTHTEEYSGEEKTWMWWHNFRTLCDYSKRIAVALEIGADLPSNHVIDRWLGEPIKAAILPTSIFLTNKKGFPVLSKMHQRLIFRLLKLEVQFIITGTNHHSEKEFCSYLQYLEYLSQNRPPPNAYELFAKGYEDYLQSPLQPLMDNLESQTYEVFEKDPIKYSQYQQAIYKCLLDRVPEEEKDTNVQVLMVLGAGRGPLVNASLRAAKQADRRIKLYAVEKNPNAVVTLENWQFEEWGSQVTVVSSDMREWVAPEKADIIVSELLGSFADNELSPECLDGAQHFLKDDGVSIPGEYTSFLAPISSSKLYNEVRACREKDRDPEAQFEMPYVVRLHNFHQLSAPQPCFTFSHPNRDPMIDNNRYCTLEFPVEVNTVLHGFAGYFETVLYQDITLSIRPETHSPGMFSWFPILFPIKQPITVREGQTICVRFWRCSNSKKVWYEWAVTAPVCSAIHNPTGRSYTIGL

COc1cc(C2NCCc3c2[nH]c2ccccc32)ccc1OCc1cc(C(F)(F)F)cc(C(F)(F)F)c1 (stereo not given)
pIC50 [1]: 4.81
pIC50 [2]: < 4.00
pIC50 [3]: 4.06
pIC50 (A549): 5.01
pIC50 (MCF7 [4]): 5.24
pIC50 (HeLa): 5.10
pIC50 (MDA-MB-231): 5.18
pIC50 (HepG2): 4.60
inhibition [5]: Dose-Dependent Effect
Vd [6]: 38.5 L/kg
Activity (MCF7 [7]): 54.85%
Activity (MCF7 [8]): 40.55%
Activity (MCF7 [9]): 4.25%
Activity (MCF7 [10]): 62.98%
Activity (MCF7 [11]): 36.77%
Activity (MCF7 [12]): 0.26%
Activity (MCF7 [13]): 98.07%
Activity (MCF7 [14]): 1.51%
Activity (MCF7 [15]): 0.4%
Activity (MCF7 [16]): 0.02%
Activity (MCF7 [17]): 97.31%
Activity (MCF7 [18]): 2.32%
Activity (MCF7 [19]): 0.37%
Activity (MCF7 [20]): 0%
Activity (MCF7 [21]): 96.45%
Activity (MCF7 [22]): 3.07%
Activity (MCF7 [23]): 0.48%
Activity (MCF7 [24]): 0.01%
remaining at 0.5 h [25]: 85.9%
remaining at 0.5 h [26]: 80.3%
AUC(0-t) [27]: 1960 ng·h/mL
AUC(0-inf) [28]: 2110 ng·h/mL
half-life [29]: 5.7 h
Tmax [30]: 2 h
Cmax [31]: 167 ng/mL
CL/F [32]: 78.3 mL/min/kg
bioavailability [33]: 30.6%
AUC(0-t) [34]: 1280 ng·h/mL
AUC(0-inf) [35]: 1330 ng·h/mL
half-life [36]: 4.9 h
Cmax [37]: 187 ng/mL
clearance [38]: 25 mL/min/kg
Vd [39]: 10.8 L/kg
F [40]: 100%
Activity (MCF7 [41]): Active
